Laboratory results reported in patent US8815893B2, “Hetarylaminonaphthyridines” (Merck Patent GmbH, priority 2010, dated 2014).

Biological target: T1, GST-ALK5 (Homo sapiens, UniProt P36897)
T1 sequence (P36897 34-503): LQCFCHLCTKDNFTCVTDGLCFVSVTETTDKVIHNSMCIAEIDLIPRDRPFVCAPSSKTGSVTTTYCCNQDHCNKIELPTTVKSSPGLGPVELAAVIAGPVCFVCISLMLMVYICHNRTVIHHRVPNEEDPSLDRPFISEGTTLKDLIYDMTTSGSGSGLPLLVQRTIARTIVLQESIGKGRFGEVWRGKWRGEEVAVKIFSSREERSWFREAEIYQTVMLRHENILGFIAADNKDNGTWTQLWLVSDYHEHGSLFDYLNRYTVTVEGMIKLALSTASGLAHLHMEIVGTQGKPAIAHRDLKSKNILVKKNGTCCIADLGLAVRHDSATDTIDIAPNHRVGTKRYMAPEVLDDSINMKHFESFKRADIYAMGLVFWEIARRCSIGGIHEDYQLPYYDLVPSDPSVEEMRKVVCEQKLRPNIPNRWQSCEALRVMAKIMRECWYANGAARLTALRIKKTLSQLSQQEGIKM
Test: In-vitro (enzyme) kinase assay, 384-well flashplate (example 14)
Type: biochemical
Details: GST-ALK5, GST-SMAD2 substrate, 33P-ATP flashplate, 30° C. 45 min; IC50 classes; read-out: TβR activity (example 14)
Experimental: In-Vitro (Enzyme) Assay for Determination of the Efficacy of Inhibitors of the Inhibition of TGF-Beta-Mediated Effects
The kinase assay was carried out as 384-well flashplate assay. 31.2 nM of GST-ALK5, 439 nM of GST-SMAD2 and 3 mM of ATP (with 0.3 μCi of ^33P-ATP/well) were incubated in a total volume of 35 μl (20 mM of HEPES, 10 mM of MgCl2, 5 mM of MnCl2, 1 mM of DTT, 0.1% of BSA, pH 7.4) without or with test substance (5-10 concentrations) at 30° C. for 45 min. The reaction was stopped using 25 μl of 200 mM EDTA solution, filtered with suction at room temperature after 30 min, and the wells were washed with 3 times 100 μl of 0.9% NaCl solution. Radioactivity was measured in the TopCount. The IC50 values were calculated using RS1. Above and below, all temperatures were indicated in ° C.

Compound	IC50 [nM]
Cc1cccc(-c2cc(Nc3ccncc3)c3cccnc3n2)n1 [compound 03]	< 100
Fc1ccc(Cl)cc1-c1cc(Nc2ncncn2)c2cccnc2n1 [compound 18]	< 100
Fc1ccc(C(F)(F)F)cc1-c1cc(Nc2ccncc2)c2cccnc2n1 [compound 16]	< 100
Nc1cc(Nc2cc(-c3cc(C(F)(F)F)ccc3F)nc3ncccc23)ncn1 [compound 32]	< 100
c1cnc2nc(-c3cnccn3)cc(Nc3ccncc3)c2c1 [compound 24]	1000 to 10000
Fc1ccc(Cl)cc1-c1cc(Nc2ccncn2)c2cccnc2n1 [compound 05]	< 100
Fc1ccc(F)c(-c2cc(Nc3ccncc3)c3cccnc3n2)c1 [compound 13]	< 100
CN(C)CCCOc1cnccc1Nc1cc(-c2cc(Cl)ccc2F)nc2ncccc12 [compound 33]	< 100
CN(C)CCOc1cnccc1Nc1cc(-c2cc(Cl)ccc2F)nc2ncccc12 [compound 23]	< 100
O=c1[nH]c2cnccc2n1-c1cc(-c2cc(Cl)ccc2F)nc2ncccc12 [compound 29]	< 100
Fc1ccc(Cl)cc1-c1cc(-n2ccc3cnccc32)c2cccnc2n1 [compound 14]	< 100
Nc1cnccc1Nc1cc(-c2cc(Cl)ccc2F)nc2ncccc12 [compound 22]	< 100
Fc1ccc(Cl)cc1-c1cc(Nc2ccncc2OCCCN2CCOCC2)c2cccnc2n1 [compound 34]	< 100
Fc1ccc(Cl)cc1-c1cc(Nc2ccncc2)c2cccnc2n1 [compound 01]	< 100
OCCOc1cnccc1Nc1cc(-c2cc(Cl)ccc2F)nc2ncccc12 [compound 09]	< 100
Cn1ccc(-c2cc(Nc3ccncc3)c3cccnc3n2)n1 [compound 35]	100 to 1000
Clc1cccc(-c2cc(Nc3ccncc3)c3cccnc3n2)c1 [compound 11]	< 100
c1ccc(-c2cc(Nc3ccncc3)c3cccnc3n2)nc1 [compound 25]	< 100

Compound	IC50 [nM]
OCc1cnccc1Nc1cc(-c2cc(Cl)ccc2F)nc2ncccc12 [compound 20]	< 100
Cc1ccn(-c2cc(Nc3ccncc3)c3cccnc3n2)n1 [compound 28]	< 100
Fc1ccc(C(F)(F)F)cc1-c1cc(-n2ccc3cnccc32)c2cccnc2n1 [compound 30]	< 100
Fc1ccccc1-c1cc(Nc2ccncc2)c2cccnc2n1 [compound 10]	< 100
Fc1ccc(Cl)cc1-c1cc(Nc2ccncc2OCCN2CCOCC2)c2cccnc2n1 [compound 04]	100 to 1000
Nc1cc(Nc2cc(-c3cc(Cl)ccc3F)nc3ncccc23)ncn1 [compound 02]	< 100
CCOc1cc(Nc2cc(-c3cc(Cl)ccc3F)nc3ncccc23)ccn1 [compound 07]	100 to 1000
CN1CCN(c2cc(Nc3cc(-c4cc(Cl)ccc4F)nc4ncccc34)ccn2)CC1 [compound 08]	1000 to 10000
c1cnc2nc(-c3cn[nH]c3)cc(Nc3ccncc3)c2c1 [compound 31]	100 to 1000
COCCOc1cnccc1Nc1cc(-c2cc(C(F)(F)F)ccc2F)nc2ncccc12 [compound 26]	< 100
CN1CCN(c2ccc(Nc3cc(Nc4cc(-c5cc(Cl)ccc5F)nc5ncccc45)ccn3)cc2)CC1 [compound 27]	100 to 1000
Cn1nccc1-c1cc(Nc2ccncc2)c2cccnc2n1 [compound 36]	1000 to 10000
FC(F)(F)c1cccc(-c2cc(Nc3ccncc3)c3cccnc3n2)c1 [compound 12]	< 100
Cn1cc(-c2cc(Nc3ccncc3)c3cccnc3n2)cn1 [compound 19]	1000 to 10000
Fc1ccc(-c2cc(Nc3ccncc3)c3cccnc3n2)cc1 [compound 06]	< 100
COCCOc1cnccc1Nc1cc(-c2cc(Cl)ccc2F)nc2ncccc12 [compound 15]	< 100
Fc1ccccc1-c1cc(Nc2ccncn2)c2cccnc2n1 [compound 17]	< 100
Fc1ccc(C(F)(F)F)cc1-c1cc(Nc2ccncn2)c2cccnc2n1 [compound 21]	< 100

Now from value to compound:

IC50 [nM]	Compound
< 100	Fc1ccc(Cl)cc1-c1cc(Sc2ccncc2)c2cccnc2n1 [compound 58]
> 10000	O=C(CCN1CCNCC1)Nc1cc(Nc2cc(-c3cc(Cl)ccc3F)nc3ncccc23)ncn1 [compound 102]
100 to 1000	COCCNc1cc(Nc2cc(-c3cc(F)ccc3F)nc3ncccc23)ncn1 [compound 138]
< 100	CN(C)c1cc(Nc2cc(-c3cc(Cl)ccc3F)nc3ncccc23)ncn1 [compound 121]
< 100	Fc1ccc(OC(F)(F)F)cc1-c1cc(Nc2ccncc2)c2cccnc2n1 [compound 38]
1000 to 10000	Fc1ccc(Cl)cc1-c1cc(Nc2ccnc(Nc3cc(-c4cc(Cl)ccc4F)nc4ncccc34)n2)c2cccnc2n1 [compound 39]
< 100	Nc1nccc(Nc2cc(-c3cc(Cl)ccc3F)nc3ncccc23)n1 [compound 52]
< 100	CN1CCC(COc2cnccc2Nc2cc(-c3cc(Cl)ccc3F)nc3ncccc23)CC1 [compound 47]
< 100	Cc1cccc(-c2cc(-n3ccc4cnccc43)c3cccnc3n2)n1 [compound 57]
< 100	Cc1cccc(-c2cc(Nc3cc(N)ncn3)c3cccnc3n2)n1 [compound 55]
< 100	CNC(=O)c1cc(Nc2cc(-c3cc(Cl)ccc3F)nc3ncccc23)ccn1 [compound 53]
< 100	Fc1ccc(Cl)cc1-c1cc(-n2ccc3cncnc32)c2cccnc2n1 [compound 54]
< 100	CC(C)(C)OC(=O)Nc1nccc(Nc2cc(-c3cc(Cl)ccc3F)nc3ncccc23)n1 [compound 51]
< 100	CCNC(=O)c1cnccc1Nc1cc(-c2cccc(C)n2)nc2ncccc12 [compound 60]
< 100	CC(C)C(=O)Nc1cc(Nc2cc(-c3cc(Cl)ccc3F)nc3ncccc23)ccn1 [compound 70]
100 to 1000	CCN(CCOc1cnccc1Nc1cc(-c2cc(Cl)ccc2F)nc2ncccc12)C(=O)OC(C)(C)C [compound 45]
< 100	N#Cc1cncnc1Nc1cc(-c2cc(Cl)ccc2F)nc2ncccc12 [compound 41]
< 100	Fc1cc(F)c(-c2cc(Nc3ccncc3)c3cccnc3n2)cc1F [compound 43]

IC50 [nM]	Compound
100 to 1000	CCNCCOc1cnccc1Nc1cc(-c2cc(Cl)ccc2F)nc2ncccc12 [compound 46]
< 100	Fc1cc(F)c(-c2cc(Nc3ccncn3)c3cccnc3n2)cc1F [compound 50]
100 to 1000	Cc1cccc(-c2cc(-n3ccc4cncnc43)c3cccnc3n2)n1 [compound 59]
< 100	CC(=O)Nc1cc(Nc2cc(-c3cc(Cl)ccc3F)nc3ncccc23)ccn1 [compound 67]
< 100	Fc1ccc(C(F)(F)F)cc1-c1cc(Nc2ncncn2)c2cccnc2n1 [compound 44]
< 100	Fc1ccc(Cl)cc1-c1cc(Nc2ccnc(Cl)c2)c2cccnc2n1 [compound 62]
< 100	COC(=O)c1cnccc1Nc1cc(-c2cc(Cl)ccc2F)nc2ncccc12 [compound 40]
< 100	COC(=O)c1cc(Nc2cc(-c3cc(Cl)ccc3F)nc3ncccc23)ccn1 [compound 48]
< 100	OCc1cnccc1Nc1cc(-c2cc(C(F)(F)F)ccc2F)nc2ncccc12 [compound 37]
100 to 1000	N#Cc1ccccc1-c1cc(Nc2ccncc2)c2cccnc2n1 [compound 61]
< 100	Cc1nn(-c2cc(-c3cc(Cl)ccc3F)nc3ncccc23)c2ccncc12 [compound 71]
1000 to 10000	O=C(O)c1cc(Nc2cc(-c3cc(Cl)ccc3F)nc3ncccc23)ccn1 [compound 68]
< 100	Cc1cccc(-c2cc(Nc3ccncn3)c3cccnc3n2)n1 [compound 49]
< 100	O=C(O)c1cnccc1Nc1cc(-c2cc(Cl)ccc2F)nc2ncccc12 [compound 63]
< 100	N#Cc1cnccc1Nc1cc(-c2cc(Cl)ccc2F)nc2ncccc12 [compound 65]
> 10000	Fc1ccc(Cl)cc1-c1cc(Oc2ccncc2)c2cccnc2n1 [compound 56]
< 100	CNC(=O)c1cnccc1Nc1cc(-c2cc(Cl)ccc2F)nc2ncccc12 [compound 42]

Test system: lung epithelial cell line Mv1Lu
Test: Cellular assay for TGF-beta receptor I kinase inhibitors: elimination of TGF-beta-mediated growth inhibition (example 13)
Type: cell-based
Details: 48 h; Mv1Lu cells, 1 ng/ml TGF-beta, 0.5% FCS, two days, Crystal Violet staining; read-out: TβR activity (example 13)
Experimental: Cellular Assay for Testing TGF-Beta Receptor I Kinase Inhibitors
As an example, the ability of the inhibitors to eliminate TGF-beta-mediated growth inhibition was tested. Cells of the lung epithelial cell line Mv1Lu were sown in a defined cell density in a 96-well microtiter plate and cultivated overnight under standard conditions. Next day, the medium was replaced by medium which comprises 0.5% of FCS and 1 ng/ml of TGF-beta, and the test substances were added in defined concentrations, generally in the form of dilution series with 5 fold steps. The concentration of the solvent DMSO was constant at 0.5%. After a further two days, Crystal Violet staining of the cells was carried out. After extraction of the Crystal Violet from the fixed cells, the absorption was measured spectrophotometrically at 550 nm. It could be used as a quantitative measure of the adherent cells present and thus of the cell proliferation during the culture.

Compound	IC50 [nM]
O=C(CCN1CCNCC1)Nc1cc(Nc2cc(-c3cc(Cl)ccc3F)nc3ncccc23)ncn1 [compound 102]	> 10000
COCCNc1cc(Nc2cc(-c3cc(F)ccc3F)nc3ncccc23)ncn1 [compound 138]	100 to 1000
CN(C)c1cc(Nc2cc(-c3cc(Cl)ccc3F)nc3ncccc23)ncn1 [compound 121]	< 100
